Assay results: EP4793641A1, “NOVEL METHOD FOR ANALYZING BIOMOLECULAR INTERACTIONS” (Kyoto University, priority 2023, dated 2025)
Like-named read-outs stand apart in the source and are kept apart here. Non-standard residues stand in square brackets, D forms with d. Residues, ends and D or L forms follow the SMILES beside them. Primed or numbered codes have the meaning given here. *: point of attachment. Me′ = methyl group capping the C-terminus; pS = N[C@@H](COP(=O)(O)O)C(=O)O; Meb = Cc1ccc(C*)cc1; Bn = c1ccc(C*)cc1; tBu = CC(C)(C)*

Target: T1, interactions between Talin 1 (TLN1) and integrin subunit beta (ITGB) (Homo sapiens, UniProt Q9Y490)
T1 construct: LgBit or SmBit (N-terminal of the HaloTag); made in house
Assay: Flip-flop detection mechanism on DNA origami (LgBit/SmBit luminescence), inhibitor screening
Assay type: biochemical
Conditions: inhibition of binding between TLN1 and ITBG; for IC50: read-out: Inhibitory activity
Text: Two types of systems, i.e., flip-flop detection mechanism and switch detection mechanism, were constructed by using HaloTag, LgBit, SmBit, TLN1, and ITGB. Each of TLN1 (Uniprot ID: Q9Y490) and ITGB1 (Uniprot ID: P05556) was cloned from the registered genetic information. HaloTAg has three chemically modifiable locations at a ligand recognition site, C-terminus, and N-terminus. In this Example, a single-stranded DNA for attaching to DNA origami was connected to a ligand recognition site of HaloTag, a subunit of an interaction complex was connected to the C-terminus, and LgBit or SmBit was connected to the N-terminus.
The outline of the system is disclosed in Figure 23. When TLN1 and ITBG are in a bound state in this system, LgBit and SmBit are at spatially separated positions from each other, with a HaloTag interposed therebetween. In this regard, if an inhibitor is added, complex formation of TLN1 and ITBG is inhibited. As a result, a LgBit-SmBit complex can be formed, and a luminescence reaction progresses.
As a candidate drug for inhibiting the binding between TLN1 and ITBG, peptide inhibitors consisting of 13 amino acids prepared by modifying amino acids in an intracellular region of ITGB3 have been designed (Shen B. et al., A directional switch of integrin signaling and a new antithrombotic strategy. Nature 503, 131-135 (2013)). IC50 values for the peptides shown in the following table were calculated by using the flip-flop detection mechanism described in Example 11 for optimizing the sequence. In this manner, the effect of a large number of compounds on the interaction with a target protein can be readily analyzed in the system of the present disclosed.

Inhibitory activity | IC50 [µM] | Compound | other results
no inhibition | – | CSCC[C@H](NC(=O)[C@H](CCCCN)NC(=O)[C@H](CCC(=O)O)NC(=O)[C@H](CCCCN)NC(=O)[C@H](CCC(=O)O)NC(=O)[C@H](Cc1ccccc1)NC(=O)[C@@H](N)CCCCN)C(=O)N[C@@H](CC(N)=O)C(=O)N[C@@H](CSCc1ccc(C)cc1)C(=O)N[C@@H](CCCCN)C(=O)N[C@@H](Cc1c[nH]c2ccccc12)C(=O)N[C@@H](CCSC)C(=O)N[C@H](C(=O)O)[C@@H](C)O [FIYM41] (H-KFEKEKMNC(Meb)KWMT-OH) | –
– | – | CSCC[C@H](NC(=O)[C@H](CCCCN)NC(=O)[C@H](CCC(=O)O)NC(=O)[C@H](CCCCN)NC(=O)[C@H](CCC(=O)O)NC(=O)[C@H](Cc1ccccc1)NC(=O)[C@@H](N)CCSC)C(=O)N[C@@H](CC(N)=O)C(=O)N[C@@H](CS)C(=O)N[C@@H](CCCCN)C(=O)N[C@@H](Cc1c[nH]c2ccccc12)C(=O)N[C@@H](CCSC)C(=O)N[C@H](C(=O)O)[C@@H](C)O [FIYM47] (H-MFEKEKMNCKWMT-OH) | IC50 (µM): 71.4 µM
– | 41.2 | Ace-KFEKEKMNCKWMT-Me (Ace-KFEKEKMNCKWMT-{Me′}) [FIYM15] | –
no inhibition | – | CSCC[C@H](NC(=O)[C@H](CCCNC(=N)N)NC(=O)[C@H](CCC(=O)O)NC(=O)[C@H](CCCCN)NC(=O)[C@H](CCC(=O)O)NC(=O)[C@H](Cc1ccccc1)NC(=O)[C@@H](N)CCCCN)C(=O)N[C@@H](CCSC)C(=O)N[C@@H](CS)C(=O)N[C@@H](CCCCN)C(=O)N[C@@H](Cc1c[nH]c2ccccc12)C(=O)N[C@@H](CCSC)C(=O)N[C@H](C(=O)O)[C@@H](C)O [FIYM33] (H-KFEKERMMCKWMT-OH) | –
no inhibition | – | CSCC[C@H](NC(=O)[C@H](CCCCN)NC(=O)[C@H](CCC(=O)O)NC(=O)[C@H](CCCCN)NC(=O)[C@H](CCC(=O)O)NC(=O)[C@H](Cc1ccccc1)NC(=O)[C@@H](N)CCCCN)C(=O)N[C@@H](CCSC)C(=O)N[C@@H](CS)C(=O)N[C@@H](CCCCN)C(=O)N[C@@H](Cc1c[nH]c2ccccc12)C(=O)N[C@@H](CCSC)C(=O)N[C@H](C(=O)O)[C@@H](C)O [FIYM29] (H-KFEKEKMMCKWMT-OH) | –
– | 212 | KF(-Me)EKEKMNCKWMT (KFEKEKMNCKWMT) [FIYM19] | –
no inhibition | – | CSCC[C@H](NC(=O)[C@H](CCCCN)NC(=O)[C@H](CCC(=O)O)NC(=O)[C@H](CCCCN)NC(=O)[C@H](CCC(=O)O)NC(=O)[C@H](Cc1ccccc1)NC(=O)[C@@H](N)CCCCN)C(=O)N[C@@H](CC(N)=O)C(=O)N[C@@H](CSCc1ccccc1)C(=O)N[C@@H](CCCCN)C(=O)N[C@@H](Cc1c[nH]c2ccccc12)C(=O)N[C@@H](CCSC)C(=O)N[C@H](C(=O)O)[C@@H](C)O [FIYM43] (H-KFEKEKMNC(Bn)KWMT-OH) | –
no inhibition | – | CSCC[C@H](NC(=O)[C@H](CCCCN)NC(=O)[C@H](CCC(=O)O)NC(=O)[C@H](CCCCN)NC(=O)[C@H](CCC(=O)O)NC(=O)[C@H](Cc1ccccc1)NC(=O)[C@@H](N)CCCCN)C(=O)N[C@@H](CC(N)=O)C(=O)N[C@@H](CS)C(=O)N[C@@H](CCCCN)C(=O)N[C@@H](Cc1c[nH]c2ccccc12)C(=O)N[C@@H](CC(=O)O)C(=O)N[C@H](C(=O)O)[C@@H](C)O [FIYM8] (H-KFEKEKMNCKWDT-OH) | –
– | 5.7 | CSCC[C@H](NC(=O)[C@H](CCCCN)NC(=O)[C@H](CCC(=O)O)NC(=O)[C@H](CCCCN)NC(=O)[C@H](CCC(=O)O)NC(=O)[C@H](Cc1ccccc1)NC(=O)[C@@H](N)CCCCN)C(=O)N[C@@H](CC(N)=O)C(=O)N[C@@H](CS)C(=O)N[C@@H](CCCCN)C(=O)N[C@@H](Cc1c[nH]c2ccccc12)C(=O)N[C@@H](CCSC)C(=O)N[C@H](C(=O)O)[C@@H](C)O [FIYM10] (H-KFEKEKMNCKWMT-OH) | –
no inhibition | – | CSCC[C@H](NC(=O)[C@H](CCCNC(=N)N)NC(=O)[C@H](CCC(=O)O)NC(=O)[C@H](Cc1ccccc1)NC(=O)[C@@H](N)CCCCN)C(=O)N[C@@H](CC(N)=O)C(=O)N[C@@H](CS)C(=O)N[C@@H](CCCCN)C(=O)N[C@@H](Cc1c[nH]c2ccccc12)C(=O)N[C@@H](CCSC)C(=O)N[C@H](C(=O)O)[C@@H](C)O [FIYM20] (H-KFERMNCKWMT-OH) | –
– | 444 | CSCC[C@H](NC(=O)[C@H](CCCCN)NC(=O)[C@H](CCC(=O)O)NC(=O)[C@H](CCCCN)NC(=O)[C@H](CCC(=O)O)NC(=O)[C@@H](N)Cc1ccccc1)C(=O)N[C@@H](CC(N)=O)C(=O)N[C@@H](CS)C(=O)N[C@@H](CCCCN)C(=O)N[C@@H](Cc1c[nH]c2ccccc12)C(=O)N[C@@H](CCSC)C(=O)N[C@H](C(=O)O)[C@@H](C)O [FIYM23] (H-FEKEKMNCKWMT-OH) | –
no inhibition | – | CSCC[C@H](NC(=O)[C@H](Cc1c[nH]c2ccccc12)NC(=O)[C@H](CCCCN)NC(=O)[C@H](CS)NC(=O)[C@H](CC(N)=O)NC(=O)[C@H](CCSC)NC(=O)[C@H](CCCCN)NC(=O)[C@H](CCC(=O)O)NC(=O)[C@H](CCCCN)NC(=O)[C@H](CCC(=O)O)NC(=O)[C@@H](N)Cc1ccccc1)C(=O)O [FIYM24] (H-FEKEKMNCKWM-OH) | –
– | 110 | CSCC[C@H](NC(=O)[C@H](CCCCN)NC(=O)[C@H](CCC(=O)O)NC(=O)[C@H](CCCCN)NC(=O)[C@H](CCC(=O)O)NC(=O)[C@H](Cc1ccccc1)NC(=O)[C@@H](N)CCCCN)C(=O)N[C@@H](CC(N)=O)C(=O)N[C@@H](CSC(C)(C)C)C(=O)N[C@@H](CCCCN)C(=O)N[C@@H](Cc1c[nH]c2ccccc12)C(=O)N[C@@H](CCSC)C(=O)N[C@H](C(=O)O)[C@@H](C)O [FIYM40] (H-KFEKEKMNC(tBu)KWMT-OH) | –
no inhibition | – | CSCC[C@H](NC(=O)[C@H](Cc1c[nH]c2ccccc12)NC(=O)[C@H](CCCCN)NC(=O)[C@H](CS)NC(=O)[C@H](CC(N)=O)NC(=O)[C@H](CCSC)NC(=O)[C@H](CCCCN)NC(=O)[C@H](CCC(=O)O)NC(=O)[C@H](CCCCN)NC(=O)[C@H](CCC(=O)O)NC(=O)[C@H](Cc1ccccc1)NC(=O)[C@@H](N)CCCCN)C(=O)N[C@@H](COP(=O)(O)O)C(=O)O [FIYM14] (H-KFEKEKMNCKWM[pS]-OH) | –
– | – | CSCC[C@H](NC(=O)[C@H](CCCCN)NC(=O)[C@H](CCC(=O)O)NC(=O)[C@H](CCCCN)NC(=O)[C@H](CCC(=O)O)NC(=O)[C@H](Cc1ccccc1)NC(=O)[C@H](CCCCN)NC(=O)[C@H](Cc1c[nH]cn1)NC(=O)[C@H](Cc1c[nH]cn1)NC(=O)[C@H](Cc1c[nH]cn1)NC(=O)[C@H](Cc1c[nH]cn1)NC(=O)[C@H](Cc1c[nH]cn1)NC(=O)[C@H](Cc1c[nH]cn1)NC(=O)[C@@H](N)CCSC)C(=O)N[C@@H](CC(N)=O)C(=O)N[C@@H](CS)C(=O)N[C@@H](CCCCN)C(=O)N[C@@H](Cc1c[nH]c2ccccc12)C(=O)N[C@@H](CCSC)C(=O)N[C@H](C(=O)O)[C@@H](C)O [FIYM49] (H-MHHHHHHKFEKEKMNCKWMT-OH) | IC50 (µM): 107 µM
– | 144 | CSCC[C@H](NC(=O)[C@H](CCCCN)NC(=O)[C@H](CCC(=O)O)NC(=O)[C@H](CCCCN)NC(=O)[C@H](CCC(=O)O)NC(=O)[C@H](Cc1ccccc1)NC(=O)[C@H](CCCCN)NC(=O)[C@@H]1CCCN1C(C)=O)C(=O)N[C@@H](CC(N)=O)C(=O)N[C@@H](CS)C(=O)N[C@@H](CCCCN)C(=O)N[C@@H](Cc1c[nH]c2ccccc12)C(=O)N[C@@H](CCSC)C(=O)N[C@H](C(=O)O)[C@@H](C)O [FIYM17] (Ac-PKFEKEKMNCKWMT-OH) | –
no inhibition | – | CC[C@H](C)[C@H](NC(=O)[C@@H]1CCCN1C(=O)[C@H](CC(N)=O)NC(=O)[C@H](CCC(=O)O)NC(=O)CNC(=O)[C@@H](NC(=O)[C@H](CC(=O)O)NC(=O)[C@H](Cc1c[nH]c2ccccc12)NC(=O)[C@@H](N)CCCCN)[C@@H](C)O)C(=O)N[C@@H](Cc1ccc(O)cc1)C(=O)N[C@@H](CCCCN)C(=O)O [FIYM4] (H-KWDTGENPIYK-OH) | –
– | 94.7 | CSCC[C@H](NC(=O)[C@H](CCCCN)NC(=O)[C@H](CCC(=O)O)NC(=O)[C@H](CCCNC(=N)N)NC(=O)[C@H](CCC(=O)O)NC(=O)[C@H](Cc1ccccc1)NC(=O)[C@@H](N)CCCCN)C(=O)N[C@@H](CC(N)=O)C(=O)N[C@@H](CS)C(=O)N[C@@H](CCCCN)C(=O)N[C@@H](Cc1c[nH]c2ccccc12)C(=O)N[C@@H](CCSC)C(=O)N[C@H](C(=O)O)[C@@H](C)O [FIYM27] (H-KFEREKMNCKWMT-OH) | –
no inhibition | – | CSCC[C@H](NC(=O)[C@H](CCCCN)NC(=O)[C@H](CCC(=O)O)NC(=O)[C@H](CCCCN)NC(=O)[C@H](CCC(=O)O)NC(=O)[C@H](Cc1ccccc1)NC(=O)[C@@H](N)CCCCN)C(=O)N[C@@H](CC(N)=O)C(=O)N[C@@H](COP(=O)(O)O)C(=O)N[C@@H](CCCCN)C(=O)N[C@@H](Cc1c[nH]c2ccccc12)C(=O)N[C@@H](CCSC)C(=O)N[C@H](C(=O)O)[C@@H](C)O [FIYM36] (H-KFEKEKMN[pS]KWMT-OH) | –
